Experimental data: patent US20250230138A1, “COMPOUNDS HAVING A T-STRUCTURE FORMED BY AT LEAST FOUR CYCLES FOR USE IN THE TREATMENT OF CANCER AND OTHER INDICATIONS” (TheRas, Inc., priority 2022, published 2025)
Read-outs that look alike come from different tables or passages of the source.

Legend:
[1] = tested on: pAKT in BT474 cells; assay: Cell-based pAKT HTRF assay in BT474 cells; conditions: BT474 cells, 4 hr incubation, read-out: pAKT inhibition IC50 in BT474 cells
Summary of the method: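 pAKT was measured by HTRF after a 4 hr compound exposure in BT474 cells (DMEM, 10% FBS, 0.25% DMSO), using 9 concentrations from 3 μM in 3-fold steps. Cell lysates were incubated with the Eu cryptate/d2 antibody pair at room temperature for 4 to 24 h. The plate was then read at 320 nm excitation and 615 nm emission.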

[2] = target: Cys242 in human PIK3CA (157-299) (Homo sapiens (Human), UniProt P42336); assay: Covalent modification assay using MALDI-TOF MS; type: biochemical; conditions: 4 h reaction time point
Summary of the method: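 PIK3CA (157-299) at 3.33 μM or 1 μM in 20 mM HEPES, 150 mM NaCl, 2 mM MgCl2, pH 7.3 was incubated with compound (from 10 mM DMSO stocks) in the dark at room temperature for 15 min, 30 min, 2 h or 4 h. Linear-mode MALDI-TOF peak heights gave percent modification.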

[3] = 1 μM protein target, 1:5 protein to compound ratio (compounds 853-1279)
[4] = 3.33 μM protein target, 1:7.5 protein to compound ratio (compounds 1-852)
[5] = Homo sapiens, BT-474, Compounds 10-999

Chain of Cys242 in human PIK3CA (157-299) (P42336 157-299): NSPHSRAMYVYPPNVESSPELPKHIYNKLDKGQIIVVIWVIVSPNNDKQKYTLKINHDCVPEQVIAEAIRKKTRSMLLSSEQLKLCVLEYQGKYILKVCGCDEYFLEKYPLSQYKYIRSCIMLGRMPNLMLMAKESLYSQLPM

SMILES | IC50 ([1]; Compounds 10-999) [nM] | % of modification [2, 3] | % of modification [2, 4] | IC50 ([1]; Compounds 1000-1279) [nM] | IC50 [1, 5] [nM]
C=CC(=O)N1CCn2nc(-c3nc(-c4ccc5c(c4)C(=O)NCC5)c4ccsc4c3-c3c(F)cc(F)cc3OCCO)cc2[C@H]1C [Compound 955] | < 100 | A (percent of modification of PIK3CA protein ≥75%) |  |  | 
C=CC(=O)N1CCn2nc(-c3nc(-c4ccc5c(c4)CCN(C)C5)c4ccsc4c3-c3c(F)cc(F)cc3OCCO)cc2C1C (stereo not shown) [Compound 537] | < 100 |  | A (percent of modification of PIK3CA protein ≥75%) |  | 
C=CC(=O)N1CCn2nc(-c3nc(-c4ccc(C5(F)CN(C)C5)cc4)c4ccsc4c3-c3c(F)cc(F)cc3OCCOC)cc2C1C (stereo not shown) [Compound 1044] |  | A (percent of modification of PIK3CA protein ≥75%) |  | < 100 | 
C=CC(=O)N1CCc2ccc(-c3nc(-c4ccc5c(c4)CNC(=O)C5)c4ccsc4c3-c3ccc(F)cc3OC)cc2C1 [Compound 80] | 100 to 1000 |  | A (percent of modification of PIK3CA protein ≥75%) |  | 
C=CC(=O)N1CCn2nc(-c3nc(N4CCS(=O)(=O)CC4)c4ccsc4c3-c3ccc(F)cc3OC(C)C)cc2C1 [Compound 286] | > 3000 |  | A (percent of modification of PIK3CA protein ≥75%) |  | 
C=CC(=O)N1CCc2nc(-c3nc(-c4cnn(CC(C)(C)N)c4)c4ccsc4c3-c3c(F)cc(F)cc3OC(C)C)sc2C1 [Compound 401] | 100 to 1000 |  | A (percent of modification of PIK3CA protein ≥75%) |  | 
C=CC(=O)N1Cc2cc(-c3nc(-c4cnc(C)nc4)c4ccsc4c3-c3c(F)cc(F)cc3OCCOC)nn2C[C@H]1C [Compound 686] | < 100 |  | A (percent of modification of PIK3CA protein ≥75%) |  | 
C=CC(=O)N1C[C@H](C)n2nc(-c3nc(-c4cnn(C)c4)c4ccsc4c3-c3c(F)cc(F)cc3OCCOC)cc2[C@@H]1C [Compound 607] | < 100 |  | A (percent of modification of PIK3CA protein ≥75%) |  | 
C=CC(=O)N1Cc2cc(-c3nc(-c4cnn(C)c4)c4ccsc4c3-c3ccc(F)cc3OC(C)C)nn2[C@H](C)C1 [Compound 357, 1-((7R)-2-(7-(4-fluoro-2-isopropoxyphenyl)-4-(1-methyl-1H-pyrazol-4-yl)thieno[3,2-c]pyridin-6-yl)-7-methyl-6,7-dihydropyrazolo[1,5-a]pyrazin-5(4H)-yl)prop-2-en-1-one] |  |  | A (percent of modification of PIK3CA protein ≥75%) |  | < 100
C=CC(=O)N1Cc2cc(-c3nc(-c4ncn(C)n4)c4ccsc4c3-c3c(F)cc(F)cc3OCCOC)nn2CC1C (stereo not shown) [Compound 851] | < 100 |  | A (percent of modification of PIK3CA protein ≥75%) |  | 
C=C(F)C(=O)N1CCn2nc(-c3nc(-c4ccc(=O)n(C)c4)c4ccsc4c3-c3ccc(F)cc3OC(C)C)nc2C1 [Compound 267] | 100 to 1000 |  | A (percent of modification of PIK3CA protein ≥75%) |  | 
C=CC(=O)N1CCn2nc(-c3nc(-c4cnn(C)c4)c4c(c3-c3ccc(F)cc3OC)C(F)CC4)cc2C1 (stereo not shown) [Compound 574, 1-(2-(5-fluoro-4-(4-fluoro-2-methoxyphenyl)-1-(1-methyl-1H-pyrazol-4-yl)-6,7-dihydro-5H-cyclopenta[c]pyridin-3-yl)-6,7-dihydropyrazolo[1,5-a]pyrazin-5(4H)-yl)prop-2-en-1-one] |  |  | A (percent of modification of PIK3CA protein ≥75%) |  | < 100
C=CC(=O)N1CCc2nc(-c3nc(-c4ccc5c(c4)CNC5=O)c4ccsc4c3-c3c(F)cc(F)cc3OCCO)sc2C1 (single isomer, unassigned) [Compound 1033] |  | D (percent of modification <25%) |  | > 1000 | 
C=CC(=O)N1CCn2nc(-c3nc(-c4cnc5c(c4)CN(CC(F)F)CC5)c4ccsc4c3-c3c(F)cc(F)cc3OCCOC)cc2C1C (stereo not shown) [Compound 1081] |  | A (percent of modification of PIK3CA protein ≥75%) |  | < 100 | 
C=CC(=O)N1CCn2nc(-c3nc(-c4ccc5ncn(C)c5c4)c4ccsc4c3-c3c(F)cc(F)cc3OC[C@@H](C)O)cc2[C@H]1C [Compound 748] | < 100 |  | A (percent of modification of PIK3CA protein ≥75%) |  | 
C=CC(=O)N1CCc2nc(-c3nc(-c4ccc5c(c4)CCNC5)c4ccsc4c3-c3ccc(F)cc3OCCO)sc2C1 [Compound 130] | < 100 |  | A (percent of modification of PIK3CA protein ≥75%) |  | 
C=CC(=O)N1CCn2nc(-c3nc(-c4ccc5ncn(C)c5c4)c4ccsc4c3-c3c(F)cc(F)cc3OCCO)cc2C1C (stereo not shown) [Compound 773] | < 100 |  | A (percent of modification of PIK3CA protein ≥75%) |  | 
C=CC(=O)N1CCn2nc(-c3nc(-c4ccc5c(c4)CN(C)C(=O)C5)c4ccsc4c3-c3c(F)cc(F)cc3OCCOC)cc2[C@@H]1C [Compound 975] | < 100 | D (percent of modification <25%) |  |  | 

SMILES | IC50 ([1]; Compounds 10-999) [nM] | % of modification [2, 3] | % of modification [2, 4] | IC50 ([1]; Compounds 1000-1279) [nM] | IC50 [1, 5] [nM]
C=CC(=O)N1CCn2nc(-c3nc(-c4cnn(C)c4)c4ccsc4c3-c3c(F)cc(F)cc3OC[C@@H](C)O)cc2[C@@H]1C [Compound 547] | < 100 |  | A (percent of modification of PIK3CA protein ≥75%) |  | 
C=CC(=O)N1CCc2ncc(-c3nc(-c4ccc5c(c4)CCNC5)c4c(c3-c3ccc(F)cc3OC)CCC4)cc2C1 [Compound 89, 1-[3-[4-(4-fluoro-2-methoxy-phenyl)-1-(1,2,3,4-tetrahydroisoquinolin-6-yl)-6,7-dihydro-5H-cyclopenta[c]pyridin-3-yl]-7,8-dihydro-5H-1,6-naphthyridin-6-yl]prop-2-en-1-one] |  |  | A (percent of modification of PIK3CA protein ≥75%) |  | 100 to 1000
C=CC(=O)N1Cc2cc(-c3nc(-c4cnc5c(c4)CN(C)C5=O)c4ccsc4c3-c3c(F)cc(F)cc3OC(C)C)nn2[C@@H](C)C1 [Compound 505] | < 100 |  | A (percent of modification of PIK3CA protein ≥75%) |  | 
C=CC(=O)N1CCn2nc(-c3nc(-c4ccc5c(c4)C4(CC4)CN(C)C5)c4ccsc4c3-c3c(F)cc(F)cc3OCCO)cc2C1C (stereo not shown) [Compound 1197] |  | A (percent of modification of PIK3CA protein ≥75%) |  | < 100 | 
C=CC(=O)N1CCn2nc(-c3nc(-c4ccc5c(c4)CNC(=O)C5(C)C)c4ccsc4c3-c3c(F)cc(F)cc3OCCOC)cc2C1C (stereo not shown) [Compound 1079] |  | A (percent of modification of PIK3CA protein ≥75%) |  | < 100 | 
C=CC(=O)N1CCc2ncc(-c3nc(-c4cnc5c(c4)CN(C)CC5)c4ccsc4c3-c3c(F)cc(F)cc3OC(C)C)cc2C1 [Compound 327] | < 100 |  | A (percent of modification of PIK3CA protein ≥75%) |  | 
C=CC(=O)N1CCn2nc(-c3nc(-c4cc5cnn(C)c5cc4F)c4ccsc4c3-c3c(F)cc(F)cc3OCCOC)cc2[C@H]1C [Compound 1164] |  | A (percent of modification of PIK3CA protein ≥75%) |  | < 100 | 
C=CC(=O)N1Cc2cc(-c3nc(-c4cnn(C5CCC5)c4)c4ccsc4c3-c3c(F)cc(F)cc3OCCOC)nn2C[C@H]1C [Compound 723] | < 100 |  | A (percent of modification of PIK3CA protein ≥75%) |  | 
C=CC(=O)N1CC(n2cc(-c3nc(-c4cnn(CF)c4)c4ccsc4c3-c3ccc(F)cc3OCCOC)cn2)C1 [Compound 236] | 100 to 1000 |  | A (percent of modification of PIK3CA protein ≥75%) |  | 
C=CC(=O)N1CCn2nc(-c3nc(-c4ccc5c(c4)CN(C)CC54CC4)c4ccsc4c3-c3c(F)cc(F)cc3OCCOC)cc2C1C (stereo not shown) [Compound 1113] |  | A (percent of modification of PIK3CA protein ≥75%) |  | < 100 | 
C=CC(=O)N1CCc2nc(-c3nc(-c4ccc5c(c4)CCNC5)c4ccsc4c3-c3c(F)cc(F)cc3OC(C)C)sc2C1 [Compound 367] | 100 to 1000 |  | A (percent of modification of PIK3CA protein ≥75%) |  | 
C=CC(=O)N1Cc2cc(-c3nc(-c4ccc5cn(C)nc5c4)c4ccsc4c3-c3c(F)cc(F)cc3OC)nn2C[C@H]1C [Compound 844] | < 100 |  | A (percent of modification of PIK3CA protein ≥75%) |  | 
C=CC(=O)N1CCn2nc(-c3nc(-c4ccc5nncn5c4)c4ccsc4c3-c3c(F)cc(F)cc3OC[C@@H](C)O)cc2[C@H]1C [Compound 897] | < 100 | A (percent of modification of PIK3CA protein ≥75%) |  |  | 
C=CC(=O)N1Cc2cc(-c3nc(-c4cc(C)ncn4)c4ccsc4c3-c3c(F)cc(F)cc3OCCOC)nn2CC1C (stereo not shown) [Compound 850] | < 100 |  | A (percent of modification of PIK3CA protein ≥75%) |  | 
C=CC(=O)N1CCn2nc(-c3nc(-c4cnn(C)c4)c4ccsc4c3-c3c(F)cc(F)cc3OCCO)cc2C1C (stereo not shown) [Compound 538] | < 100 |  | A (percent of modification of PIK3CA protein ≥75%) |  | 
C=CC(=O)N1Cc2cc(-c3nc(-c4ccc5c(c4)CN(C)C5=O)c4ccsc4c3-c3c(F)cc(F)cc3OC)nn2C(C)C1 (stereo not shown) [Compound 911] | 100 to 1000 | B (50%<percent of modification <75%) |  |  | 
C=CC(=O)N1CCn2nc(-c3nc(-c4ccc5c(c4)CCN(C)C5)c4ccsc4c3-c3c(F)cc(F)cc3OCCOC)cc2[C@@H]1C [Compound 544] | < 100 |  | A (percent of modification of PIK3CA protein ≥75%) |  | 
